Data set [1] in a line: Metabolic Stability assay, rat liver microsomes. It counts as in vitro ADME. Here is the method:
Metabolic Stability assay: The metabolic stability was determined by adding compound dissolved in DMSO to human or rat, liver microsomes. Briefly, assays were run with a starting concentration of 1 μM test article. The reaction was started by addition of NADPH regeneration components at 37° C. at which time an aliquot was immediately quenched in ice-cold acetonitrile/MeOH/H2O solution. Reaction mixture was incubated at 37° C. on a shaker, and additional aliquots were taken at 7, 15, 30 and 60 minutes. Following quench and centrifugation, samples were analyzed on HPLC/MS/MS.
Background: Liver microsomes are vesicles of endoplasmic reticulum, rich in cytochrome P450 enzymes.

Data set [2] in a line: Aqueous solubility assay in Normal Ringer Solution. The conditions noted are these: Normal Ringer Solution; for Solubility Ringer (nM): room temperature; for solubility at 40 min: saline or isotonic, kinetic from dmso stock. The method, then:
Following vortex and incubation for a sufficient time (e.g. 40 minutes at room temperature), solutions were filtered, quenched with acetonitrile, and analyzed by Liquid Chromotography. Solubility Limits were determined by comparison to a standard curve.

The next data set addresses hTRPV3 (Homo sapiens (Human), UniProt Q8NET8). In words: Whole-cell patch clamp, hTRPV3 Phase 1 / Phase 2 currents. It counts as cell-based. An outline of the steps: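 Whole-cell recordings on induced TRPV3 cells replated on coverslips, held at −40 mV with 400 ms ramps from −120 to +100 mV every 5 s; currents read at −80 and +80 mV. Ringer's external solution; current activated by heating to ≥28 °C or 20 μM 2-APB.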
In general terms: Patch clamp records ionic current or voltage across a cell membrane.

The mark [3] stands for this setting: Phase 1 current, inward, whole-cell patch clamp, read-out: hTRPV3 Patch P1 Inwd.
The mark [4] stands for this setting: Phase 1 current, read-out: hTRPV3 (nM) (Phase 1).
Where [5] appears, read: Phase 2 current, inward, whole-cell patch clamp, read-out: hTRPV3 Patch P2 Inwd.
Where [6] appears, read: Phase 2 current, read-out: hTRPV3 (nM) (Phase 2).
Where [7] appears, read: Phase 1 current, human TRPV3, read-out: hTRPV3 (nM) Phase 1.

As usually defined, the solubility is how much of the substance goes into solution per volume. A high value points to much dissolved substance.

Converted amounts (≈) assume the structure as drawn. Where two headings read alike, the source gives them in different places.

hTRPV3, sequence (Q8NET8 whole entry): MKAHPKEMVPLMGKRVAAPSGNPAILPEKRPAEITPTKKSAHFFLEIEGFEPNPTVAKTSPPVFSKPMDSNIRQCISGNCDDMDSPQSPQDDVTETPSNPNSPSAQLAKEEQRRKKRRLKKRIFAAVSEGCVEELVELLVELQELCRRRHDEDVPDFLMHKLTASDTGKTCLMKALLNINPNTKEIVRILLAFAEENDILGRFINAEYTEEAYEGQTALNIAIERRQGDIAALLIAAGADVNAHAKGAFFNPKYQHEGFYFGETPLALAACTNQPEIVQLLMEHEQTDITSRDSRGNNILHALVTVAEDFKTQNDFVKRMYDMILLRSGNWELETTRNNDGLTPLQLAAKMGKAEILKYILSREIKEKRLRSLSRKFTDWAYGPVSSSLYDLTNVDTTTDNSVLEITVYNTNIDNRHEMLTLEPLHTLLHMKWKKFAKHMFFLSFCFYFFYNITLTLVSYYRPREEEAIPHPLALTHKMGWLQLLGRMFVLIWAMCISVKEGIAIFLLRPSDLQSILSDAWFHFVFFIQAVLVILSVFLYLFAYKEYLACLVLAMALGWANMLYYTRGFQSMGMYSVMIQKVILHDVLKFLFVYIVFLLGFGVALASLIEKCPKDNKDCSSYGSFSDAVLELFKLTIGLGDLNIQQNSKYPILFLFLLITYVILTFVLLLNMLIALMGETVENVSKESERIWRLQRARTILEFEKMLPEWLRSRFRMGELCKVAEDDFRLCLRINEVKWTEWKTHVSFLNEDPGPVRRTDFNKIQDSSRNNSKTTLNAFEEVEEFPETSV

Turning to `Oc1cc(-c2ccccc2Cl)ccc1N1CC[C@@H](Oc2ccc(C(F)(F)F)cn2)C1` [Compound 1-113, (R)-2′-chloro-4-(3-(5-(trifluoromethyl)pyridin-2-yloxy)pyrrolidin-1-yl)biphenyl-3-ol], the half-life at 1 μM in data set [1] (read-out: LM T1/2 (min) (rat)) was found to be 33.5 min. Also, the “Solubility Ringer (nM)” value in data set [2] was “BLQ”. Also, the IC50 on hTRPV3 (setting [3]) is 100 to 1000 nM; at hTRPV3 (setting [4]), about 97.5 nM; on hTRPV3 (setting [5]) it was 100 to 1000 nM; at hTRPV3 (setting [6]), 109 nM.
For the compound `OCCOc1cc(-c2ccccc2)ccc1N1CC[C@@H](Oc2ccc(C(F)(F)F)cn2)C1` [Compound 1-117, (R)-2-(4-(3-(5-(trifluoromethyl)pyridin-2-yloxy)pyrrolidin-1-yl)biphenyl-3-yloxy)ethanol], the half-life at 1 μM in data set [1] (read-out: LM T1/2 (min) (rat)) was determined as 79.8 min. The solubility at 40 min in data set [2] is about 2 µM (≈ 0.889 µg/mL). Further, the IC50 is over 1000 nM at hTRPV3 (setting [3]), 1920 nM on hTRPV3 (setting [4]), 100 to 1000 nM on hTRPV3 (setting [5]) and 486 nM at hTRPV3 (setting [6]).
With `OCCOc1cc(-c2ccccc2Cl)ccc1N1CC[C@H](Oc2ccc(C(F)(F)F)cn2)C1` [Compound 1-133, (S)-2-(2′-chloro-4-(3-(5-(trifluoromethyl)pyridin-2-yloxy)pyrrolidin-1-yl)biphenyl-3-yloxy)ethanol], the half-life at 1 μM in data set [1] (read-out: LM T1/2 (min) (rat)) amounted to 55 min. The amount in solution in data set [2] (solubility at 40 min) came to 0.56 µM (≈ 0.268 µg/mL). For the same compound, the IC50 on hTRPV3 (setting [3]) was over 1000 nM; at hTRPV3 (setting [4]), 1120 nM.
`NC(=O)c1cc(C(=O)c2ccccc2)ccc1N1CC[C@H](Oc2ncccc2Cl)C1` [Compound 1-136, (S)-5-benzoyl-2-(3-(3-chloropyridin-2-yloxy)pyrrolidin-1-yl)benzamide]: the half-life at 1 μM in data set [1] (read-out: LM T1/2 (min) (rat)) worked out at 19.7 min. This compound also yielded a solubility at 40 min in data set [2] of over 15 µM. Besides, the IC50 on hTRPV3 (hTRPV3 Patch P1 Inwd (nM)) was over 1000 nM; against hTRPV3 (hTRPV3 Patch P2 Inwd (nM)) it was over 1000 nM; on hTRPV3 (read-out: hTRPV3 (nM) (Phase 1)) it was 1620 nM; on hTRPV3 (read-out: hTRPV3 (nM) (Phase 2)) it was 1670 nM.
Regarding `Cc1ccc(O[C@H]2CCN(c3ccc(-c4ccccc4)cc3CO)C2)nc1` [Compound 1-141, (S)-(4-(3-(5-methylpyridin-2-yloxy)pyrrolidin-1-yl)biphenyl-3-yl)methanol], in data set [1] (read-out: LM T1/2 (min) (rat)), the half-life at 1 μM amounted to 38.4 min. Moreover, the solubility at 40 min in data set [2] was about 0.97 µM (≈ 0.35 µg/mL). The IC50 was 100 to 1000 nM at hTRPV3 (setting [3]) and 125 nM on hTRPV3 (setting [4]).
Turning to `OCCc1cc(-c2ccccc2)ccc1N1CC[C@H](Oc2ccc(C(F)(F)F)cn2)C1` [Compound 1-142, (S)-2-(4-(3-(5-(trifluoromethyl)pyridin-2-yloxy)pyrrolidin-1-yl)biphenyl-3-yl)ethanol], the half-life at 1 μM in data set [1] (read-out: LM T1/2 (min) (rat)) was determined as 65.2 min. In data set [2], the “Solubility Ringer (nM)” value is reported as “BLQ”. The IC50 was 100 to 1000 nM on hTRPV3 (setting [3]) and 275 nM at hTRPV3 (setting [4]).
For `COc1ccccc1-c1ccc(N2CC[C@H](Oc3ccc(C(F)(F)F)cn3)C2)c(CO)c1` [Compound 1-151, (S)-(2′-methoxy-4-(3-(5-(trifluoromethyl)pyridin-2-yloxy)pyrrolidin-1-yl)biphenyl-3-yl)methanol], in data set [1] (read-out: LM T1/2 (min) (rat)), the half-life at 1 μM came to 38.9 min. Further, in data set [2], the “Solubility Ringer (nM)” value was “BLQ”. For the same compound, the IC50 on hTRPV3 (setting [3]) was 100 to 1000 nM; on hTRPV3 (setting [4]), 125 nM.
Turning to `Cc1ccccc1C(O)c1ccc(N2CC[C@H](Oc3ncccc3F)C2)c(CO)c1` (stereo partly drawn) [Compound 1-231, (4-((S)-3-(3-fluoropyridin-2-yloxy)pyrrolidin-1-yl)-3-(hydroxymethyl)phenyl)(o-tolyl)methanol], the half-life at 1 μM in data set [1] (read-out: LM T1/2 (min) (rat)) turned out to be 16.3 min. Also, the solubility at 40 min in data set [2] was over 26.8 µM.
For `CCc1cc(F)ccc1Oc1ccc(N2CC[C@H](Oc3ccccn3)C2)c(CO)c1` [Compound 1-330], in data set [1] (read-out: LM T1/2 (min) (rat)), the half-life at 1 μM turned out to be 24.8 min. The IC50 at hTRPV3 (setting [3]) is 10 to 100 nM; on hTRPV3 (setting [4]), 49.5 nM; at hTRPV3 (setting [5]), 10 to 100 nM; at hTRPV3 (setting [6]), 56.6 nM.
Compound `OCc1cc(Oc2ccccc2)ccc1N1CC[C@H](Nc2ncccc2Cl)C1` [Compound 1-381, (S)-(2-(3-(3-chloropyridin-2-ylamino)pyrrolidin-1-yl)-5-phenoxyphenyl)methanol] displayed a solubility at 40 min in data set [2] of over 1.6 µM. Moreover, the IC50 is 10 to 100 nM at hTRPV3 (setting [3]) and 23.3 nM on hTRPV3 (setting [4]).
`OCc1cc(Oc2ccccc2Cl)ccc1N1CC[C@H](Nc2ncccc2Cl)C1` [Compound 1-382, (S)-(5-(2-chlorophenoxy)-2-(3-(3-chloropyridin-2-ylamino)pyrrolidin-1-yl)phenyl)methanol] displayed a solubility at 40 min in data set [2] of 0.5 µM (≈ 0.215 µg/mL). Besides, the IC50 is 10 to 100 nM on hTRPV3 (setting [3]) and 30.9 nM on hTRPV3 (setting [4]).
Compound `OCc1cc(-c2ccccc2)ccc1N1CC[C@H](Nc2nc(C(F)(F)F)cs2)C1` [Compound 1-394, (S)-(4-(3-(4-(trifluoromethyl)thiazol-2-ylamino)pyrrolidin-1-yl)biphenyl-3-yl)methanol] gave a solubility at 40 min in data set [2] of 1.87 µM (≈ 0.784 µg/mL). Besides, the IC50 on hTRPV3 (setting [3]) is 100 to 1000 nM; at hTRPV3 (setting [4]) it was 616 nM; at hTRPV3 (setting [5]) it was 100 to 1000 nM; at hTRPV3 (setting [6]), 496 nM.
Take `OCc1cc(-c2ccccc2)ccc1N1CC[C@H](Oc2nc(C(F)(F)F)cs2)C1` [Compound 1-395, (S)-(4-(3-(4-(trifluoromethyl)thiazol-2-yloxy)pyrrolidin-1-yl)biphenyl-3-yl)methanol]: the “Solubility Ringer (nM)” value in data set [2] is reported as “BLQ”. Moreover, the IC50 at hTRPV3 (setting [3]) was over 1000 nM; at hTRPV3 (setting [4]), over 3200 nM; at hTRPV3 (setting [5]), over 1000 nM; on hTRPV3 (setting [6]) it was over 3200 nM.
In the case of `CC(C)c1ccccc1Oc1ccc(C2CCN(C(=O)c3ccc(Cl)cn3)C2)c(CO)c1` (stereo not drawn) [Compound 2-17, (5-chloropyridin-2-yl)(3-(2-(hydroxymethyl)-4-(2-isopropylphenoxy)phenyl)pyrrolidin-1-yl)methanone], the half-life at 1 μM in data set [1] (read-out: LM T1/2 (min) rat) amounted to 7.93 min. Also, the IC50 is 57.4 nM on hTRPV3 (setting [7]) and 10 to 100 nM at hTRPV3 (setting [3]).
For `Cc1cccnc1C(=O)N1CCC(c2ccc(Oc3ccccc3C(C)C)cc2CO)C1` (stereo not drawn) [Compound 2-18, (3-(2-(hydroxymethyl)-4-(2-isopropylphenoxy)phenyl)pyrrolidin-1-yl)(3-methylpyridin-2-yl)methanone], the half-life at 1 μM in data set [1] (read-out: LM T1/2 (min) rat) stood at 7.81 min. Also, the IC50 at hTRPV3 (setting [7]) was 314 nM; on hTRPV3 (setting [3]) it was 100 to 1000 nM.
Turning to `CCc1ccccc1-c1ccc(C2CCN(C(=O)c3ccccn3)C2)c(CO)c1` (stereo not drawn) [Compound 2-27, (3-(2′-ethyl-3-(hydroxymethyl)biphenyl-4-yl)pyrrolidin-1-yl)(pyridin-2-yl)methanone], the half-life at 1 μM in data set [1] (read-out: LM T1/2 (min) rat) is 12.9 min. The IC50 was 73 nM at hTRPV3 (setting [7]) and 10 to 100 nM on hTRPV3 (setting [3]).
Turning to `CC(C)c1ccccc1Oc1ccc(C2CCN(C(=O)c3ccc(Cl)cn3)C2)c(C(N)=O)c1` (stereo not drawn) [Compound 2-32, 2-(1-(5-chloropicolinoyl)pyrrolidin-3-yl)-5-(2-isopropylphenoxy)benzamide], the half-life at 1 μM in data set [1] (read-out: LM T1/2 (min) rat) was 6.86 min. In addition, the IC50 is 677 nM on hTRPV3 (setting [7]) and 100 to 1000 nM at hTRPV3 (setting [3]).
Consider `Cc1cccc(C(=O)N2CCC(c3ccc(Oc4ccccc4C(C)C)cc3C(N)=O)C2)n1` (stereo not drawn) [Compound 2-33, 5-(2-isopropylphenoxy)-2-(1-(6-methylpicolinoyl)pyrrolidin-3-yl)benzamide], for which the half-life at 1 μM in data set [1] (read-out: LM T1/2 (min) rat) is 11 min. Also, the IC50 on hTRPV3 (setting [7]) is 645 nM; on hTRPV3 (setting [3]), 100 to 1000 nM.
As to `CCc1ccccc1-c1ccc(C2CCN(C(=O)c3ccc(F)cn3)C2)c(C(N)=O)c1` (stereo not drawn) [Compound 2-34, 2′-ethyl-4-(1-(5-fluoropicolinoyl)pyrrolidin-3-yl)biphenyl-3-carboxamide], in data set [1] (read-out: LM T1/2 (min) rat), the half-life at 1 μM amounted to 26.4 min. For the same compound, the IC50 at hTRPV3 (setting [7]) is 337 nM; at hTRPV3 (setting [3]), 100 to 1000 nM.
As for `CC(C)c1ccccc1-c1ccc(C2CCN(C(=O)c3ncccc3Cl)C2)c(CO)c1` (stereo not drawn) [Compound 2-36], the half-life at 1 μM in data set [1] (read-out: LM T1/2 (min) rat) was determined as 11.2 min. Moreover, the IC50 at hTRPV3 (setting [7]) is 39.3 nM; at hTRPV3 (setting [3]), 10 to 100 nM.
Taken in the same sequence, the figures for `O=C(c1cccc(Cl)n1)N1CCC(c2ccc(-c3ccccc3C3CC3)cc2CO)C1` (stereo not drawn) [Compound 2-57, (6-chloropyridin-2-yl)(3-(2′-cyclopropyl-3-(hydroxymethyl)biphenyl-4-yl)pyrrolidin-1-yl)methanone] were 32.3 min, 7.34 nM and under 10 nM.
For `Cc1ccc(C(=O)N2CCC(c3ccc(-c4ccccc4C(C)C)cc3CO)C2)nc1` (stereo not drawn) [Compound 2-79], in data set [2], the concentration in solution (solubility at 40 min) came to 7.38 µM (≈ 3.06 µg/mL). The IC50 was 19.8 nM at hTRPV3 (setting [7]) and 10 to 100 nM on hTRPV3 (setting [3]).
As to `Cc1ccccc1Oc1ccc(C2CCN(Cc3ncccc3Cl)C2)c(CO)c1` (stereo not drawn) [Compound 2-86], in data set [2], the solubility at 40 min was about 2.2 µM (≈ 0.9 µg/mL). Further, the results for the IC50 at hTRPV3 (setting [7]) and on hTRPV3 (setting [3]) were 226 nM and 100 to 1000 nM, respectively.
Take `CC(C)c1ccccc1Oc1ccc(C2CCN(C(=O)Cc3ccccn3)C2)c(CO)c1` (stereo not drawn) [Compound 2-116]: the half-life at 1 μM in data set [1] (read-out: LM T1/2 (min) rat) came out at 3.62 min. In addition, the IC50 is about 3500 nM on hTRPV3 (setting [7]) and 2600 nM at hTRPV3 (Phase 2 current, human TRPV3, read-out: hTRPV3 (nM) Phase 2).

Source of the values: patent US12435061B2 (priority 2020, dated 2025).
